Legend:
Assay type in all cases: functional
KM12 = experiment: Antiproliferative activity against human KM12 cells assessed as cell growth at 10^-5 M after 48 hrs by SRB assay relative to control; conditions: KM12, 48 h, read-out: Activity
IGROV-1 = experiment: Antiproliferative activity against human IGROV1 cells assessed as cell growth at 10^-5 M after 48 hrs by SRB assay relative to control; conditions: IGROV-1, 48 h, read-out: Activity
SK-MEL-28 = experiment: Antiproliferative activity against human SK-MEL-28 cells assessed as cell growth at 10^-5 M after 48 hrs by SRB assay relative to control; conditions: SK-MEL-28, 48 h, read-out: Activity
OVCAR-4 = experiment: Antiproliferative activity against human OVCAR4 cells assessed as cell growth at 10^-5 M after 48 hrs by SRB assay relative to control; conditions: OVCAR-4, 48 h, read-out: Activity
RXF 393 = experiment: Antiproliferative activity against human RXF393 cells assessed as cell growth at 10^-5 M after 48 hrs by SRB assay relative to control; conditions: RXF 393, 48 h, read-out: Activity
BT-549 = experiment: Antiproliferative activity against human BT549 cells assessed as cell growth at 10^-5 M after 48 hrs by SRB assay relative to control; conditions: BT-549, 48 h, read-out: Activity
A498 = experiment: Antiproliferative activity against human A498 cells assessed as cell growth at 10^-5 M after 48 hrs by SRB assay relative to control; conditions: A498, 48 h, read-out: Activity
OVCAR-8 = experiment: Antiproliferative activity against human OVCAR8 cells assessed as cell growth at 10^-5 M after 48 hrs by SRB assay relative to control; conditions: OVCAR-8, 48 h, read-out: Activity
SK-OV-3 = experiment: Antiproliferative activity against human SKOV3 cells assessed as cell growth at 10^-5 M after 48 hrs by SRB assay relative to control; conditions: SK-OV-3, 48 h, read-out: Activity
MDA-MB-231 = experiment: Antiproliferative activity against human MDA-MB-231 cells assessed as cell growth at 10^-5 M after 48 hrs by SRB assay relative to control; conditions: MDA-MB-231, 48 h, read-out: Activity
ACHN = experiment: Antiproliferative activity against human ACHN cells assessed as cell growth at 10^-5 M after 48 hrs by SRB assay relative to control; conditions: read-out: Activity
SNB-19 = experiment: Antiproliferative activity against human SNB19 cells assessed as cell growth at 10^-5 M after 48 hrs by SRB assay relative to control; conditions: SNB-19, 48 h, read-out: Activity
HCT-15 = experiment: Antiproliferative activity against human HCT15 cells assessed as cell growth at 10^-5 M after 48 hrs by SRB assay relative to control; conditions: HCT-15, 48 h, read-out: Activity
COLO 205 = experiment: Antiproliferative activity against human COLO205 cells assessed as cell growth at 10^-5 M after 48 hrs by SRB assay relative to control; conditions: COLO 205, 48 h, read-out: Activity
OVCAR-3 = experiment: Antiproliferative activity against human OVCAR3 cells assessed as cell growth at 10^-5 M after 48 hrs by SRB assay relative to control; conditions: OVCAR-3, 48 h, read-out: Activity
LOX IMVI = experiment: Antiproliferative activity against human LOXIMVI cells assessed as cell growth at 10^-5 M after 48 hrs by SRB assay relative to control; conditions: read-out: Activity
T47D = experiment: Antiproliferative activity against human T47D cells assessed as cell growth at 10^-5 M after 48 hrs by SRB assay relative to control; conditions: read-out: Activity
Rattus norvegicus = experiment: Antiinflammatory activity in Wistar rat assessed as inhibition of carrageenan-induced paw edema at 20 mg/kg, po administered 30 mins before carrageenan challenge measured after 5 hrs
NCI-H23 = experiment: Antiproliferative activity against human NCI-H23 cells assessed as cell growth at 10^-5 M after 48 hrs by SRB assay relative to control; conditions: NCI-H23, 48 h, read-out: Activity
MDA-MB-468 = experiment: Antiproliferative activity against human MDA-MB-468 cells assessed as cell growth at 10^-5 M after 48 hrs by SRB assay relative to control; conditions: MDA-MB-468, 48 h, read-out: Activity
SW-620 = experiment: Antiproliferative activity against human SW620 cells assessed as cell growth at 10^-5 M after 48 hrs by SRB assay relative to control; conditions: SW-620, 48 h, read-out: Activity
A549 = experiment: Antiproliferative activity against human A549 cells assessed as cell growth at 10^-5 M after 48 hrs by SRB assay relative to control; conditions: A549, 48 h, read-out: Activity
HCC 2998 = experiment: Antiproliferative activity against human HCC2998 cells assessed as cell growth at 10^-5 M after 48 hrs by SRB assay relative to control; conditions: HCC 2998, 48 h, read-out: Activity
SR = experiment: Antiproliferative activity against human SR cells assessed as cell growth at 10^-5 M after 48 hrs by SRB assay relative to control; conditions: read-out: Activity
M14 = experiment: Antiproliferative activity against human M14 cells assessed as cell growth at 10^-5 M after 48 hrs by SRB assay relative to control; conditions: M14, 48 h, read-out: Activity
HT-29 = experiment: Antiproliferative activity against human HT-29 cells assessed as cell growth at 10^-5 M after 48 hrs by SRB assay relative to control; conditions: HT-29, 48 h, read-out: Activity
MDA-MB-435 = experiment: Antiproliferative activity against human MDA-MB-435 cells assessed as cell growth at 10^-5 M after 48 hrs by SRB assay relative to control; conditions: MDA-MB-435, 48 h, read-out: Activity
[1] = Antiproliferative activity against human Hs 578T cells assessed as cell growth at 10^-5 M after 48 hrs by SRB assay relative to control; conditions: read-out: Activity
HOP-62 = experiment: Antiproliferative activity against human HOP62 cells assessed as cell growth at 10^-5 M after 48 hrs by SRB assay relative to control; conditions: HOP-62, 48 h, read-out: Activity
MCF7 = experiment: Antiproliferative activity against human MCF7 cells assessed as cell growth at 10^-5 M after 48 hrs by SRB assay relative to control; conditions: MCF7, 48 h, read-out: Activity
NCI/ADR-RES = experiment: Antiproliferative activity against human NCI/ADR-RES cells assessed as cell growth at 10^-5 M after 48 hrs by SRB assay relative to control; conditions: read-out: Activity
EKVX = experiment: Antiproliferative activity against human EKVX cells assessed as cell growth at 10^-5 M after 48 hrs by SRB assay relative to control; conditions: read-out: Activity
SK-MEL-5 = experiment: Antiproliferative activity against human SK-MEL-5 cells assessed as cell growth at 10^-5 M after 48 hrs by SRB assay relative to control; conditions: SK-MEL-5, 48 h, read-out: Activity

Structure (SMILES)	growth at 10 µM (KM12)	growth at 10 µM (IGROV-1)	growth at 10 µM (SK-MEL-28)	growth at 10 µM (OVCAR-4)	growth at 10 µM (RXF 393)	growth at 10 µM (BT-549)	growth at 10 µM (A498)	growth at 10 µM (OVCAR-8)	growth at 10 µM (SK-OV-3)	growth at 10 µM (MDA-MB-231)	growth at 10 µM (ACHN)	growth at 10 µM (SNB-19)	growth at 10 µM (HCT-15)	growth at 10 µM (COLO 205)	growth at 10 µM (OVCAR-3)	growth at 10 µM (LOX IMVI)	growth at 10 µM (T47D)	inhibition in vivo at 20 mg/kg (Rattus norvegicus)	growth at 10 µM (NCI-H23)	growth at 10 µM (MDA-MB-468)	also measured
COc1ccc(C2CC(c3c(O)cc(C)c(Cl)c3C)=NN2c2ccc(S(N)(=O)=O)cc2)cc1 (centres undefined)	75%	71.9%	96.7%	86.4%	111%	119%	93.2%	101%	101%	71%	96.7%	92.7%	92.2%	102%	102%	70.6%	62.1%	36.4%	108%	91.5%	growth at 10 µM (SW-620): 94.8%; growth at 10 µM (A549): 56%; growth at 10 µM (HCC 2998): 97.6%; growth at 10 µM (SR): 41.5%; growth at 10 µM (M14): 77.8%; growth at 10 µM (HT-29): 109%; growth at 10 µM (MDA-MB-435): 79.3%; growth at 10 µM [1]: 99%; growth at 10 µM (HOP-62): 78.1%; growth at 10 µM (MCF7): 71.6%; growth at 10 µM (NCI/ADR-RES): 101%; growth at 10 µM (EKVX): 70.5%; growth at 10 µM (SK-MEL-5): 94.4%
Cc1cc(O)c(C2=NN(c3ccc(S(N)(=O)=O)cc3)C(c3ccc(Cl)cc3)C2)c(C)c1Cl (centres undefined)	62.4%	34.1%	90.2%	58.8%	93.4%	95.7%	74.3%	75.2%	106%	103%	88.6%	107%	80.5%	76.2%	80.3%	82.8%	37%	81.8%	79.3%	91.1%	growth at 10 µM (SW-620): 72.2%; growth at 10 µM (A549): 40.8%; growth at 10 µM (HCC 2998): 94.1%; growth at 10 µM (SR): -22.2%; growth at 10 µM (M14): 89.3%; growth at 10 µM (HT-29): 52.7%; growth at 10 µM (MDA-MB-435): 69.3%; growth at 10 µM [1]: 82.5%; growth at 10 µM (HOP-62): 107%; growth at 10 µM (MCF7): 37.2%; growth at 10 µM (NCI/ADR-RES): 85.7%; growth at 10 µM (EKVX): 51.1%; growth at 10 µM (SK-MEL-5): 79.6%
Cc1cc(O)c(C2=NN(c3ccc(S(N)(=O)=O)cc3)C(c3ccc(N(C)C)cc3)C2)c(C)c1Cl (centres undefined)	29.1%	20.6%	76.3%	58.9%	48.1%	112%	87.2%	5.73%	81.6%	59%	58.7%	89.8%	65.2%	30.8%	68%	52.4%	46.9%	36.4%	78.8%	43.7%	growth at 10 µM (SW-620): 48.5%; growth at 10 µM (A549): 33.2%; growth at 10 µM (HCC 2998): 66.5%; growth at 10 µM (SR): -24.1%; growth at 10 µM (M14): 39.1%; growth at 10 µM (HT-29): 55.1%; growth at 10 µM (MDA-MB-435): 38.6%; growth at 10 µM [1]: 71.2%; growth at 10 µM (HOP-62): 84.3%; growth at 10 µM (MCF7): 13%; growth at 10 µM (NCI/ADR-RES): 80.3%; growth at 10 µM (EKVX): 49.7%; growth at 10 µM (SK-MEL-5): 81.7%
